Where “and” joins values, the source holds several entries; their conditions need not be identical. Equal entries are not always repeated.
What was measured:
[1] = PAMPA-BBB permeation; assay type: in vitro ADME; conditions: for Papp at 2.75 h: PAMPA, pH 7.4, PBS:EtOH (70:30), 2 h 45 min at 25 °C, porcine brain lipid, mean ± SD of two independent experiments, read-out: Pe (experimental data)
Experimental: 11. PAMPA BBB permeation studies.
Prediction of the brain penetration was evaluated using a parallel artificial membrane permeability assay (PAMPA).[12] Ten commercial drugs, PBS at pH 7.4, EtOH, and dodecane were purchased from Sigma- Aldrich, Acros organics, Merck, and Fluka. The porcine polar brain lipid (PBL) was from Avanti Polar Lipids. The donor plate was a 96-well filtrate plate (Multiscreen® IP Sterile Plate PDVF […]
both from Millipore. Filter PDVF membrane units (diameter 30 mm, pore size 0.45 µm) from Symta were used to filter the samples. A 96-well plate UV reader (Biteck Instruments, Synergy H4 Hibrid Reader) was used for the UV measurements.
12 mg of promazine) were dissolved in 1 mL of EtOH. 100 µL of this compound stock solution were taken and 1400 µL of EtOH and 3500 µL of PBS were added to reach 30% of EtOH concentration in the experiment. These solutions were filtered. The acceptor 96-well microplate was filled with 180 µL of PBS/EtOH (70/30). The donor 96-well plate was coated with 4 µL of porcine brain lipid in dodecane (20 mg mL-1) and after 5 min, 180 µL of each compound solution was added. 1 mg of […]
of EtOH and 1.4 mL of PBS, filtered and then added to the donor 96-well plate. Then the donor plate was carefully put on the acceptor plate to form a “sandwich”, which was left undisturbed for 2 h and 45 min at 25 °C. During this time the compounds diffused from the donor plate through the brain lipid membrane into the acceptor plate. After incubation, the donor plate was removed. UV plate reader determined the concentration of compounds and commercial drugs in the acceptor and the donor plates. Every sample was analyzed at three to five wavelengths (between 200 and 500 nm), in 3 wells and in two independent runs. Results are given as the mean and the average of the two runs is reported. Quality control compounds (previously mentioned) of known BBB permeability were included in each experiment to validate the analysis set.

[2] = commercial drugs of the validation study; ref [12]; cited from earlier work
[3] = system: SH-SY5Y cells; test: Cytotoxicity in SH-SY5Y cells (MTT); assay type: cell-based, human; conditions: MTT, 24 h treatment, 1.25–40 μM
Experimental: Human neuronal SH-SY5Y cells (Sigma-Aldrich, St. Louis, MO, USA) were routinely grown in Dulbecco’s modified Eagle’s Medium supplemented with 10% fetal bovine serum, 2 mM l-glutamine, 50 U/mL penicillin, and 50 μg/mL streptomycin at 37 °C in a humidified incubator with […]
Determination of cytotoxicity
(§1) SH-SY5Y cells were seeded in a 96-well plate at 2 × 10^4 cells/well, incubated for 24 h and then […]
for 24 h at 37°C in 5% CO2. The cell viability, in terms of mitochondrial metabolic function, was evaluated by the reduction of 3-(4,5-dimethyl-2-thiazolyl)-2,5-diphenyl-2H-tetrazolium bromide […]
(MTT) to its insoluble formazan. Briefly, the treatment was replaced with MTT in HBSS [0.5 mg/mL] for 2 h at 37°C in 5% CO2. After washing with HBSS, formazan crystals were dissolved in isopropanol. The amount of formazan was measured (570 nm, reference filter 690 nm) using a multilabel plate reader (VICTOR™ X3, PerkinElmer, Waltham, MA, USA). Data are expressed as mean of three independent experiments. […]

[4] = biological target: T1, GSK-3β protein (Homo sapiens, UniProt P49841); test: GSK-3β degradation by Western blotting in SH-SY5Y cells; assay type: cell-based; set-up: endogenous in cells; host or cells: SH-SY5Y; conditions: 10 μM, 48 h, Western blotting
T1 sequence (P49841 whole entry): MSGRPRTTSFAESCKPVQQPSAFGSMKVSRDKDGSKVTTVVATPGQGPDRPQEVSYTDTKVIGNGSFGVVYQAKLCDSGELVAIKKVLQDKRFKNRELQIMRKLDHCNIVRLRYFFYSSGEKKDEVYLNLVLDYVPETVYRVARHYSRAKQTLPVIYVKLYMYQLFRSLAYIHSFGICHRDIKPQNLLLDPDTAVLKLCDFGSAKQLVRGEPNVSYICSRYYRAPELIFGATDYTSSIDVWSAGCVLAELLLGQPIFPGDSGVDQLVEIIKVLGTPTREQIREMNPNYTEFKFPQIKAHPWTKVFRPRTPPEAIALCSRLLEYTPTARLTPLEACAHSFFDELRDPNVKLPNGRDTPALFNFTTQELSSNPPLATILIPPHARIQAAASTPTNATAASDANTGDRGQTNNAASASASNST
Experimental: Determination of GSK-3β degradation by Western Blotting
At the end of incubation, cells were trypsinized and the cellular pellet was resuspended in complete lysis buffer containing leupeptin (2 µg/mL, Sigma-Aldrich), phenylmethylsulfonyl fluoride (PMSF, 100 µg/mL, Sigma-Aldrich) and a cocktail of protease/phosphatase inhibitors (100×). The protein concentration was determined using the Bradford method (Bio-Rad Laboratories Srl, Hercules, CA, USA). The protein lysates (50 µg per […]
polyacrylamide gels, Bio-Rad Laboratories SrL) and electroblotted onto 0.45 µm nitrocellulose membranes. Membranes were incubated overnight at 4 °C with primary antibody recognizing GSK-3β (1:1000, Cell Signaling Technologies Inc, Danvers, MA, USA). Membranes were then washed with TRIS-buffered saline-T (TBS + 0.05% Tween20), and then incubated with horseradish peroxidase (POD) linked anti-rabbit secondary antibody (1:2000, GE Healthcare, Chicago, IL, USA).
Immunoreactive bands were visualized by enhanced chemiluminescence (ECL, Bio-Rad Laboratories Srl). The same membranes were stripped and reprobed with anti β-actin (1:1000, Sigma-Aldrich). Data were normalized on the β-actin bands and analyzed by densitometry, using the Quantity One software (Bio-Rad Laboratories Srl).[9] […]

[5] = biological target: T1, GSK-3β protein; test: GSK-3β inhibition in vitro assay (Kinase-Glo luminescent); assay type: biochemical; set-up: purchased Millipore (Millipore Iberica S.A.U.); conditions: ATP 1 μM, GSM substrate 25 μM, 30 min at 37 °C; mean of at least two determinations in duplicate; read-out: IC50 ± SEM, GSK-3β activity
Excerpt: N-(2-(2-(2-((2-(2,6-dioxopiperidin-3-yl)-1,3-dioxoisoindolin-4-yl)amino)ethoxy)ethoxy)ethyl)- 4-((2-(naphthalen-1-yl)-3,5-dioxo-1,2,4-thiadiazolidin-4-yl)methyl)benzamide (4). Synthesized […]
GSK-3β inhibition in vitro assay. Human recombinant GSK-3β, prephosphorylated polypeptide substrate and white 96-well plates were purchased from Millipore (Millipore Iberica S.A.U.). Kinase-Glo Luminescent Kinase Assay was obtained from Promega (Promega Biotech Iberica, SL).
Adenosinetriphosphate (ATP) and all other reagents were from Sigma-Aldrich. Assay buffer contained 50 mM 4-(2-hydroxyethyl)-1- piperazineethanesulfonic acid (HEPES) (pH 7.5), 1 mM ethylenediaminetetraacetic acid (EDTA), 1 mM ethylene glycol tetraacetic acid (EGTA), and 15 mM magnesium acetate. The in solution experiments for GSK-3β inhibition analysis were performed by following the method developed by Baki et al.[1] In a typical assay, 10 μL of test compound (dissolved […]
in DMSO at 1 mM concentration and diluted in advance in assay buffer to the desired concentration) and 10 μL (20 ng) of enzyme were added to each well in presence of 20 μL of assay buffer containing […]
After a 30 min incubation time at 37 °C, the enzymatic reaction was stopped by adding 40 μL of Kinase-Glo reagent. Glow-type luminescence was recorded after 10 min using a Victorx3 (PerkinElmer Waltham, MA, USA) plate […]
inhibitory activities were calculated based on maximal kinase (average positive) and luciferase activities (average negative) measured in the absence of inhibitor and in the presence of reference […]
μM), respectively. The linear regression parameters were determined and the IC 50 extrapolated by GraphPad software (version 5.0; GraphPad Software, La Jolla, CA, USA).

[6] = system: SH-SY5Y cells; test: Neuroprotective effects against CuSO4 in SH-SY5Y cells (MTT); assay type: cell-based, human; conditions: 1 μM, 24 h, CuSO4 150 μM, MTT
Experimental: as §1
presence of CuSO4 (150 µM) at 37 °C in 5 % CO2. Cells were also treated with compound 1 (1 µM) for 24 h in the presence of lactacystin (5 µM). At the end of the treatment, the cell viability, in terms of mitochondrial metabolic function, was evaluated by the reduction of 3-(4,5-dimethyl-2-thiazolyl)- 2,5-diphenyl-2H-tetrazolium bromide (MTT) to its insoluble formazan. Briefly, the treatment was replaced with MTT in HBSS [0.5 mg/mL] for 2 h at 37°C in 5% CO2. After washing with HBSS, formazan crystals were dissolved in isopropanol. The amount of formazan was measured (570 nm, reference filter 690 nm) using a multilabel plate reader (VICTOR™ X3, PerkinElmer, Waltham, MA, USA).[10] Data are reported as mean ± SEM of three independent experiments. The neurotoxicity was expressed as a percentage of control cells and calculated by the formula: 100 – ((absorbance of treated

[7] = classified from experimental Pe

| SMILES | Papp at 2.75 h [1] [×10⁻⁶ cm/s] | concentration at which cytotoxicity was shown [3] | total GSK-3β protein level [4] | also measured |
| --- | --- | --- | --- | --- |
| CN(C)CCCN1c2ccccc2Sc2ccccc21 [Promazine, reference compound] | 24.2 ± 0.89 |  |  | Pe (literature data) [2]: 8.8 10-6 cm s-1 |
| O=C(Cn1cc(C2=C(c3ccc(Cl)cc3Cl)C(=O)NC2=O)c2ccccc21)NCCOCCOCCNc1cccc2c1C(=O)N(C1CCC(=O)NC1=O)C2=O (stereo not drawn) [Compound 3] | 20.7 ± 3.93 | higher than 20 μM | significantly decreased the total level of GSK-3β protein | BBB permeability classification [1, 7]: predicted to cross the BBB; Prediction (penetration in the CNS) [1, 7]: CNS + (CNS + (green) for P e > 15.78 × 10−6 cm s−1); IC50 [5]: 457 ± 99 nM |
| O=c1sn(-c2cccc3ccccc23)c(=O)n1Cc1ccccc1 [tideglusib, reference compound] |  |  |  | neurotoxicity induced by CuSO4 [6]: significantly counteracted the neurotoxicity induced by CuSO4 |
| Cn1c(=O)c2c(ncn2C)n(C)c1=O [Caffeine, reference compound] | 7.29 ± 0.57 |  |  |  |
| CCn1cc(C(=O)O)c(=O)c2cc(F)c(N3CCNCC3)cc21 [Norfloxacin, reference compound] | 5.37 ± 0.17 |  |  |  |
| CN1C(C(=O)Nc2ccccn2)=C(O)c2ccccc2S1(=O)=O [Piroxicam, reference compound] | 12.8 ± 0.63 |  |  | Pe (literature data) [2]: 2.5 10-6 cm s-1 |
| CCn1cc(C(=O)O)c(=O)c2cc(F)c(N3CCNCC3)nc21 [Enoxacin, reference compound] | 10.3 ± 0.95 |  |  |  |
| Cn1cc(C2=C(c3ccc(Cl)cc3Cl)C(=O)NC2=O)c2ccccc21 [SB-216763, reference compound] |  | higher than 20 μM | did not modify the basal level of GSK-3β protein | neurotoxicity induced by CuSO4 [6]: significantly counteracted the neurotoxicity induced by CuSO4 |
| O=C1CCC(N2C(=O)c3cccc(NCCOCCOCCNC(=O)c4ccc(Cn5c(=O)sn(-c6cccc7ccccc67)c5=O)cc4)c3C2=O)C(=O)N1 (stereo not drawn) [Compound 4, N-(2-(2-(2-((2-(2,6-dioxopiperidin-3-yl)-1,3-dioxoisoindolin-4-yl)amino)ethoxy)ethoxy)ethyl)-4-((2-(naphthalen-1-yl)-3,5-dioxo-1,2,4-thiadiazolidin-4-yl)methyl)benzamide] |  | higher than 20 μM | did not induce GSK-3β degradation | IC50 [5]: 178 nM |
| CNCCCN1c2ccccc2CCc2ccccc21 [Desipramine, reference compound] | 36.5 ± 5.35 |  |  |  |
| O=C1CCC(N2C(=O)c3cccc(NCCCOCCCCOCCCNC(=O)c4ccc(Cn5c(=O)sn(-c6cccc7ccccc67)c5=O)cc4)c3C2=O)C(=O)N1 (stereo not drawn) [Compound 2] |  | ≥ 20 µM | did not induce GSK-3β degradation | IC50 [5]: 79.3 nM and 79 nM |
